Experimental data as given in patent publication US20260226073A1 (AURIGENE ONCOLOGY LIMITED, priority 2023, published 2026).

Tests used:
[1] = target: T1, human recombinant CBL-b (human Biotin CBL-b recombinant protein a.a. 39-426) (Homo sapiens, UniProt Q13191); assay: Biochemical assay for CBL-b inhibition (ligand displacement TR-FRET); assay type: binding; settings: 50 nM CBL-b, 0.3 μM Bodipy FL-Probe, read-out: IC50 (CBL-b inhibition, group)
T1 construct: human Biotin CBL-b recombinant protein a.a; 39-426; Biotin (biotinylated); made in house
T1 sequence (Q13191 39-426): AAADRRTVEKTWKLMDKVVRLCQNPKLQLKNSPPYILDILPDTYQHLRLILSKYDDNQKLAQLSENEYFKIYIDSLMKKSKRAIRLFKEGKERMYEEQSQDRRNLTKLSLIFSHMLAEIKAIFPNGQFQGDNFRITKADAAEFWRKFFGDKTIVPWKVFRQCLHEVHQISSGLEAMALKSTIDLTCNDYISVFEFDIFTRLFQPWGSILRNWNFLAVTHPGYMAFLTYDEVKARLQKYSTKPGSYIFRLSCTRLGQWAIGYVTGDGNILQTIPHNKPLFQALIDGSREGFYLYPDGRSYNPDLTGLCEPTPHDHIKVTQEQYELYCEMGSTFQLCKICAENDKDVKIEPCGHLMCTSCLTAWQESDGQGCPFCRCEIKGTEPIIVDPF
Procedure, shortened: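 Ligand-displacement TR-FRET: 0.3 μM Bodipy FL probe competes with compound for 50 nM biotin-CBL-b (aa 39-426) after a 60 min RT compound pre-incubation; terbium-streptavidin detection, 60 min each step. Dose-response sigmoidal fitting gave IC50 and % maximum inhibition.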

[2] = tested on: NFAT signaling pathway in Jurkat NFAT reporter cells; assay: Jurkat NFAT reporter assay; assay type: cell-based; settings: Homo sapiens, 30 min with compound, then soluble anti-human CD3/CD28 antibody for 6 hours, luciferase readout, read-out: EC50 (Group)
Procedure, shortened: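 Results are expressed as fold change relative to stimulated, inhibitor-free cells. Stimulation was 6 h with soluble anti-human CD3/CD28 antibody after a 30-min exposure of 1×10^5 NFAT-RE luciferase Jurkat reporter cells per well to the Cbl-b inhibitor; signal read by Bio-Glo bioluminescence.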

Row | Compound | IC50 [1] | EC50 [2]
1 | Cn1cnnc1CC1(c2ccc3c(c2)C(=O)N(c2cc(CN4CCc5ccccc5C4)cc(C(F)(F)F)n2)C3)COC1 [Compound 31, 2-(4-((3,4-Dihydroisoquinolin-2(1H)-yl)methyl)-6-(trifluoromethyl)pyridin-2-yl)-6-(3-((4-methyl-4H-1,2,4-triazol-3-yl)methyl)oxetan-3-yl)isoindolin-1-one] | 300 to 5000 nM | 1000 to 10000 nM
2 | Cn1cnnc1CC1(c2ccc3c(c2)C(=O)N(c2cc(CN4CCCC(F)C4)cc(C(F)(F)F)n2)C3)COC1 (stereo not drawn) [Compound 33, 2-(4-((3-Fluoropiperidin-1-yl)methyl)-6-(trifluoromethyl)pyridin-2-yl)-6-(3-((4-methyl-4H-1,2,4-triazol-3-yl)methyl)oxetan-3-yl)isoindolin-1-one] | 300 to 5000 nM | 1000 to 10000 nM
3 | C[C@H]1CCN(Cc2cc(N3Cc4ccc(C5(Cc6nncn6C)COC5)cc4C3=O)nc(C(F)(F)F)c2)C1 [Compound 34, (S)-6-(3-((4-Methyl-4H-1,2,4-triazol-3-yl)methyl)oxetan-3-yl)-2-(4-((3-methyl-pyrrolidin-1-yl)methyl)-6-(trifluoromethyl)pyridin-2-yl)isoindolin-1-one] | 80 to 300 nM | 300 to 1000 nM
4 | Cn1cnnc1CC1(c2ccc3c(c2)C(=O)N(c2cc(CN4CCCC(CO)C4)cc(C(F)(F)F)n2)C3)COC1 (stereo not drawn) [Compound 37, 2-(4-((3-(Hydroxymethyl)piperidin-1-yl)methyl)-6-(trifluoromethyl)pyridin-2-yl)-6-(3-((4-methyl-4H-1,2,4-triazol-3-yl)methyl)oxetan-3-yl)isoindolin-1-one] | 80 to 300 nM | 1000 to 10000 nM
5 | C[C@H]1C[C@H](C)CN(Cc2cc(N3Cc4ccc(C5(Cc6nncn6C)COC5)cc4C3=O)nc(C(F)(F)F)c2)C1 [Compound 42, 2-(4-(((3S,5S)-3,5-Dimethylpiperidin-1-yl)methyl)-6-(trifluoromethyl)pyridin-2-yl)-6-(3-((4-methyl-4H-1,2,4-triazol-3-yl)methyl)oxetan-3-yl)isoindolin-1-one] | < 80 nM | 300 to 1000 nM
6 | Cn1cnnc1CC1(c2ccc3c(c2)C(=O)N(c2cc(CN4CCC5(CC4)CC5)cc(C(F)(F)F)n2)C3)COC1 [Compound 44, 2-(4-((6-Azaspiro[2.5]octan-6-yl)methyl)-6-(trifluoromethyl)pyridin-2-yl)-6-(3-((4-methyl-4H-1,2,4-triazol-3-yl)methyl)oxetan-3-yl)isoindolin-1-one] | 80 to 300 nM | 300 to 1000 nM
7 | CC1CCCCN1Cc1cc(N2Cc3ccc(C4(Cc5nncn5C)COC4)cc3C2=O)nc(C(F)(F)F)c1 (stereo not drawn) [Compound 45, 6-(3-((4-Methyl-4H-1,2,4-triazol-3-yl)methyl)oxetan-3-yl)-2-(4-((2-methyl-piperidin-1-yl)methyl)-6-(trifluoromethyl)pyridin-2-yl)isoindolin-1-one] | 300 to 5000 nM | 1000 to 10000 nM
8 | C[C@@H]1CN(Cc2cc(N3Cc4ccc(C5(Cc6nncn6C)COC5)cc4C3=O)nc(C(F)(F)F)c2)CCO1 [Compound 46, (R)-6-(3-((4-Methyl-4H-1,2,4-triazol-3-yl)methyl)oxetan-3-yl)-2-(4-((2-methyl-morpholino)methyl)-6-(trifluoromethyl)pyridin-2-yl)isoindolin-1-one] | 300 to 5000 nM | 1000 to 10000 nM
9 | Cn1cnnc1CC1(c2ccc3c(c2)C(=O)N(c2cc(CN4CCCC(F)(F)C4)cc(C(F)(F)F)n2)C3)COC1 [Compound 47, 2-(4-((3,3-Difluoropiperidin-1-yl)methyl)-6-(trifluoromethyl)pyridin-2-yl)-6-(3-((4-methyl-4H-1,2,4-triazol-3-yl)methyl)oxetan-3-yl)isoindolin-1-one] | 80 to 300 nM | 1000 to 10000 nM
10 | Cn1cnnc1CC1(c2ccc3c(c2)C(=O)N(c2cc(CN4CCC(F)(F)CC4)cc(C(F)(F)F)n2)C3)COC1 [Compound 48, 2-(4-((4,4-Difluoropiperidin-1-yl)methyl)-6-(trifluoromethyl)pyridin-2-yl)-6-(3-((4-methyl-4H-1,2,4-triazol-3-yl)methyl)oxetan-3-yl)isoindolin-1-one] | 80 to 300 nM | 300 to 1000 nM
11 | C[C@H]1CCCN(Cc2cc(CC3CC3)cc(N3Cc4ccc(C5(Cc6nncn6C)COC5)cc4C3=O)c2)C1 [Compound 49, (S)-2-(3-(Cyclopropylmethyl)-5-((3-methylpiperidin-1-yl)methyl)phenyl)-6-(3-((4-methyl-4H-1,2,4-triazol-3-yl)methyl)oxetan-3-yl)isoindolin-1-one] | 80 to 300 nM | 300 to 1000 nM
12 | Cn1cnnc1CC1(c2ccc3c(c2)C(=O)N(c2cc(CN4CC5(CCC5)C4)cc(C(F)(F)F)n2)C3)COC1 [Compound 51, 2-(4-((2-Azaspiro[3.3]heptan-2-yl)methyl)-6-(trifluoromethyl)pyridin-2-yl)-6-(3-((4-methyl-4H-1,2,4-triazol-3-yl)methyl)oxetan-3-yl)isoindolin-1-one] | 300 to 5000 nM | 1000 to 10000 nM
13 | C[C@H]1CCCN(Cc2cc(Cl)nc(N3Cc4ccc([C@]5(c6nncn6C)C[C@@H](C)C5)cc4C3=O)c2)C1 [Compound 58, 2-(6-Chloro-4-(((S)-3-methylpiperidin-1-yl)methyl)pyridin-2-yl)-6-((1s,3R)-3-methyl-1-(4-methyl-4H-1,2,4-triazol-3-yl)cyclobutyl)isoindolin-1-one] | 300 to 5000 nM | 1000 to 10000 nM
14 | C[C@H]1C[C@H](C)CN(Cc2cc(Cl)nc(N3Cc4ccc(C5(Cc6nncn6C)COC5)cc4C3=O)c2)C1 [Compound 60, 2-(6-Chloro-4-(((3S,5S)-3,5-dimethylpiperidin-1-yl)methyl)pyridin-2-yl)-6-(3-((4-methyl-4H-1,2,4-triazol-3-yl)methyl)oxetan-3-yl)isoindolin-1-one] | < 80 nM | < 300 nM
15 | Cn1cnnc1CC1(c2ccc3c(c2)C(=O)N(c2cc(CN4CC[C@H](F)C4)cc(C(F)(F)F)n2)C3)COC1 [Compound 61, (S)-2-(4-((3-Fluoropyrrolidin-1-yl)methyl)-6-(trifluoromethyl)pyridin-2-yl)-6-(3-((4-methyl-4H-1,2,4-triazol-3-yl)methyl)oxetan-3-yl)isoindolin-1-one] | 300 to 5000 nM | 1000 to 10000 nM
16 | Cn1cnnc1CC1(c2ccc3c(c2)C(=O)N(c2cc(CN4CCC5(CC5)C4)cc(Cl)n2)C3)COC1 [Compound 62, 2-(4-((5-Azaspiro[2.4]heptan-5-yl)methyl)-6-chloropyridin-2-yl)-6-(3-((4-methyl-4H-1,2,4-triazol-3-yl)methyl)oxetan-3-yl)isoindolin-1-one] | 80 to 300 nM | 300 to 1000 nM
17 | Cn1cnnc1CC1(c2ccc3c(c2)C(=O)N(c2cc(CN4CCCCC4)cc(Cl)n2)C3)COC1 [Compound 64, 2-(6-Chloro-4-(piperidin-1-ylmethyl)pyridin-2-yl)-6-(3-((4-methyl-4H-1,2,4-triazol-3-yl)methyl)oxetan-3-yl)isoindolin-1-one] | < 80 nM | < 300 nM
18 | C[C@@H]1C[C@H](C)CN(Cc2cc(N3Cc4ccc(C5(Cc6nncn6C)COC5)cc4C3=O)cc(C(F)(F)F)c2)C1 [Compound 65, 2-(3-(((3S,5R)-3,5-Dimethylpiperidin-1-yl)methyl)-5-(trifluoromethyl)phenyl)-6-(3-((4-methyl-4H-1,2,4-triazol-3-yl)methyl)oxetan-3-yl)isoindolin-1-one] | 80 to 300 nM | 300 to 1000 nM
